Measured values from patent publication US20020187925A1, “Modulating the activity of hormones or their receptors - peptides, antibodies, vaccines and uses thereof” (priority 1996, published 2002).
Non-standard residues stand in square brackets, D forms with d. No end group written: not given here. NMeY = CN[C@@H](Cc1ccc(O)cc1)C(=O)O

Tests used:
[1] = Example 22: pregnant pigs immunised twice in last trimester; anti-SRIF antibodies and piglet growth rates; type: in vivo; details: for absolute growth rates of the piglets: birth to weaning, non-immunised control 165; for anti-SRIF antibodies in colostrum and milk of the sow and in blood and gut scrapings of piglets: piglets at 3 days and 21 days of age, antigen in the preferred oil
Text: The absolute growth rates of the piglets from birth to weaning were: […]

SRIF = test: Example 23: levels of anti-SRIF antibodies in gut, plasma, milk; type: in vivo, pigs; details: for Gut IgA anti-SRIF antibodies / Gut IgG anti-SRIF antibodies / Plasma IgA anti-SRIF antibodies / Plasma IgG anti-SRIF antibodies: piglets
Text: Sows immunized twice in the last trimester of pregnancy with SEQ ID No 3 produced piglets which were on average 27% heavier at weaning (at 21 days of age) than the offsprings of sows immunised with SRIF 14 conjugate vaccine. The levels of anti-SRIF antibodies measured are given below:
Significant quantities of antibodies to SRIF were detected in the plasma and gut scrapings of piglets sucking sows immunised with SRIF/BSA or SEQ ID NO:3 emulsified in the oil of the invention.

[2] = Example 18: liveweights of piglets of immunised sows; type: in vivo, pigs
Text: This experiment sought to study the effects pre-farrowing immunisation of sows with SRIF-conjugate vaccine, or FEEDMIZA vaccine on the subsequent patterns of liveweight gain of their sucking piglets to weaning at 3 weeks of age, and for the post-weaning period The experiment monitored the piglets which were the subject of the previous experiment.
The piglets (8 per litter) on each of the 5 sows in the treatment groups (non-immunised, SRIF-conjugate immunised and FEEDMZA-immunised) were individually eartagged for identification, and were weighed at birth, 7, 14, 21 days (the day of weaning) and 35 days of age (2 weeks post-weaning).
During lactation the piglets had ready access to a creep area which was warmed by an infra-red lamp, water ad libitum and creep feed granules (Barastoc, Melbourne) for the period of 18-21 days of age. They had no access to their mothers feed during the period of lactation
At weaning each litter of piglets was placed in a flatdeck weaning cage with 50% of the floor being bedding area, and 50% woven wire mesh. The cage was provided with a small silo feeder containing the same creep/weaner feed which had been offered to the piglets for the 3 days prior to weaning. Feed and fresh drinking water were offered ad libitum.

[3] = Example 17: sows of Example 16 during lactation; liveweight loss; type: in vivo, pigs
Text: This experiment was a continuation of the trial of Example 16. It sought to observe the rate of liveweight gain of piglets during the lactation period up to weaning for piglets whose dams were immunised during gestation with FEEDMIZA, or with a SRIF-conjugate vaccine, using piglets being reared by non-immunised dams as controls.
Sows from Example 16 continued to be reared without any further immunisations or manipulations, with the exception that;
a) daily feed offered was increased to 6 kg per head from farrowing to weaning 21 days later.
b) 3 days after farrowing the number of piglets on each sow was reduced to 8 to ensure that each litter of pigs in the experiment was benefiting from the combined effects of the quantity of milk produced, and ingested any antibodies that might be in them, without confounding influences of varying litter sizes, social interactions, and competition for teats. Sows were weighed at weaning.
Piglets were individually identified at birth, and were weighed at birth, and each 7 days until weaning at 21 days of age. All piglets received a routine oral dose of broad spectrum antibiotic (Tribrissen Piglet Suspension, Intervet, Melbourne) at three days of age, as well as an intramuscular supplemental iron injection Pignaemia, Intervet, Melbourne)
Water was available ad libitum to sows and piglets at all times.

[4] = Example 16: pregnant gilts immunised with FEEDMIZA or SRIF-conjugate; liveweight gain, feed conversion; type: in vivo, pigs
Procedure: This experiment was designed to measure the effects of vaccinating pregnant gilts with FEEDMIZA by the subcutaneous route during first pregnancy. Opportunity was taken to compare any response to FEEDMIZA with response to a SRIF-conjugate vaccine delivered in the same delivery vehicle as peptide No.1. For that comparison the quantity of antigen was standardised at 100 μg of SRIF in the SRIF-conjugate, and 100 μg of the FEEDMIZA antigen.
Twenty four Landrace X Large White female hybrid gilts were selected, mated and held in conventional dry sow stalls. They were randomly assigned to 3 treatment groups, viz:
The gilts were immunised by subcutaneous injection of 3 ml of the relevant antigen at the neck-on the day of mating.
The animals were held in conventional single dry sow stalls. At 30 days of pregnancy the treatment groups were reduced to 5 confirmed pregnant animals per treatment group. Subsequent vaccinations were performed at weeks 6, 9 and 12 of pregnancy. Each gilt was fed 3 kg of feed (Breedmore sow ration, Barastoc, Melbourne) each day from mating until farrowing. Each animal was weighed at mating, and at intervals of 3 weeks until farrowing.

[5] = Solubility in sterile saline; type: physicochemical; details: sterile physiological saline / sterile saline solutions
[6] = Example 23: weaning weight of piglets of immunised sows; type: in vivo, pigs; details: 21 days of age; sows immunized twice in last trimester
Text: Sows immunized twice in the last trimester of pregnancy with SEQ ID No 3 produced piglets which were on average 27% heavier at weaning (at 21 days of age) than the offsprings of sows immunised with SRIF 14 conjugate vaccine. The levels of anti-SRIF antibodies measured are given below: […]

[7] = Immunisation of male pigs from 12 weeks of age; type: in vivo
Text: Male pigs immunised with this peptide three times from 12 weeks of age grew an average of […] faster than non-immunised pigs to 24 weeks of age, and the testicle size of the immunised pigs was approximately 50% the size of those of the non-immunised animals.

[8] = Growth of piglets suckling dams vaccinated in last trimester of pregnancy; type: in vivo, pigs; details: birth to weaning
Text: Piglets suckling dams which had been vaccinated with this molecule in the last trimester of pregnancy grew an average of 40% faster from birth to weaning than did corresponding piglets which were suckling non-immunised dams.

[9] = Immunisation of growing lambs with antigen in oil; type: in vivo
Procedure: When this antigen was injected three times into growing lambs with the preferred delivery vehicle (oil), anti-SRIF and anti-cholecystokinin antibodies were detectable at 84 days of age. By this time, the immunised lambs had grown an average of 20% more than non-immunised lambs.

SRIF/BSA: SRIF 14 (native somatostatin) conjugate presented with the preferred oil [reference compound]
absolute growth rates of the piglets [1]: 180 g per day | anti-SRIF antibodies in colostrum and milk of the sow and in blood and gut scrapings of piglets [1]: produced anti-SRIF antibodies | Milk/colostrum IgA anti-SRIF antibodies (SRIF; DAY 3): 0.029 ± 0.035 OD @ 405 nm | Sow's milk IgG anti-SRIF antibodies (SRIF; DAY 3): 1.6 ± 0.22 OD @ 405 nm | Gut IgA anti-SRIF antibodies (SRIF; DAY 3): 0.189 ± 0.133 OD @ 405 nm | Gut IgG anti-SRIF antibodies (SRIF; DAY 3): 0.684 ± 0.548 OD @ 405 nm | Plasma IgA anti-SRIF antibodies (SRIF; DAY 3): 1.067 ± 0.469 OD @ 405 nm | Plasma IgG anti-SRIF antibodies (SRIF; DAY 3): 1.38 ± 0.44 OD @ 405 nm | Gut IgA anti-SRIF antibodies (SRIF; DAY 21): 0.037 ± 0.05 OD @ 405 nm | Gut IgG anti-SRIF antibodies (SRIF; DAY 21): 0.259 ± 0.18 OD @ 405 nm | Plasma IgA anti-SRIF antibodies (SRIF; DAY 21): 0.798 ± 0.49 OD @ 405 nm | Plasma IgG anti-SRIF antibodies (SRIF; DAY 21): 1.779 ± 0.13 OD @ 405 nm

SRIF-conjugate: SRIF-conjugate vaccine delivered in the same delivery vehicle as peptide No.1 (SANSNPAMAPRERKAGCKNFFWKTFTSC; ends and bridges not checked; also: SRIF-conjugate vaccine (conjugated, site not given here))
liveweights of the piglets at weaning ([2]; 21 days of age): 7.32 ± 1.30 kg | Liveweights of the piglets 2 weeks after weaning ([2]; 35 days of age): 8.89 ± 1.33 kg | mean birthweights of the piglets ([2]; born to immunised sows): 1.40 ± 0.29 kg | Farrowing weight ([3]; sows): 154 ± 27.68 kg | Weaning weight ([3]; sows): 166.4 ± 26 kg | Weight loss ([3]; sows, farrowing to weaning): 7.2 | mean loss of liveweight of sows ([3]; three weeks lactation period, non-immunised 10.8): 12 kg | average liveweight gain per head during pregnancy ([4]; mating to parturition, 345 Kg feed, non-immunised 60): 75 kg | liveweight relative to non-immunised sows ([4]; weeks 12 and 15 of pregnancy (SRIF: from 9 weeks)): at no point was this difference ever stastically significant

LCFWKTC [SEQ ID NO:1]
solubility in sterile saline [5]: relatively soluble

C-F-W-K-T-C-S-G (CFWKTCSG; not fully specified (bridges); printed as C-F-W-K-T-C-S-G; cysteine pairing not given here) [SEQ ID NO:3]
absolute growth rates of the piglets [1]: 275 g per day | anti-SRIF antibodies in colostrum and milk of the sow and in blood and gut scrapings of piglets [1]: produced anti-SRIF antibodies | piglets heavier at weaning than offspring of sows immunised with SRIF 14 conjugate vaccine [6]: 27% | Milk/colostrum IgA anti-SRIF antibodies (SRIF; DAY 3): 0.026 ± 0.028 OD @ 405 nm | Sow's milk IgG anti-SRIF antibodies (SRIF; DAY 3): 1.4 ± 0.162 OD @ 405 nm | Gut IgA anti-SRIF antibodies (SRIF; DAY 3): 0.12 ± 0.157 OD @ 405 nm | Gut IgG anti-SRIF antibodies (SRIF; DAY 3): 0.51 ± 0.21 OD @ 405 nm | Plasma IgA anti-SRIF antibodies (SRIF; DAY 3): 1.43 ± 0.217 OD @ 405 nm | Plasma IgG anti-SRIF antibodies (SRIF; DAY 3): 0.9 ± 0.13 OD @ 405 nm | Gut IgA anti-SRIF antibodies (SRIF; DAY 21): 0.10 ± 0.087 OD @ 405 nm | Gut IgG anti-SRIF antibodies (SRIF; DAY 21): 0.123 ± 0.09 OD @ 405 nm | Plasma IgA anti-SRIF antibodies (SRIF; DAY 21): 0.567 ± 0.21 OD @ 405 nm | Plasma IgG anti-SRIF antibodies (SRIF; DAY 21): 2.12 ± 0.23 OD @ 405 nm

F-W-K-T-S-T-K-T-S-T-K-W-F (FWKTSTKTSTKWF) [SEQ ID NO:5]
anti-SRIF antibodies in colostrum and milk of the sow and in blood and gut scrapings of piglets [1]: produced anti-SRIF antibodies

F-W-K-T-S-K-H-W-S-Y-G-L-R-D-G-C (FWKTSKHWSYGLRDGC) [SEQ ID NO:53]
grew faster than non-immunised pigs ([7]; male pigs immunised three times from 12 weeks, to 24 weeks of age): 12 weeks | testicle size relative to non-immunised animals ([7]; male pigs, 24 weeks of age): approximately 50%

NMe-Y-D-T-K-V-F-C-S ([NMeY]DTKVFCS) [SEQ ID NO:51]
solubility in sterile saline [5]: very poorly soluble | growth of suckling piglets faster than piglets suckling non-immunised dams [8]: 40%

F-W-K-T-S-G-G (FWKTSGG) [SEQ ID NO:4]
absolute growth rates of the piglets [1]: 240 g per day | anti-SRIF antibodies in colostrum and milk of the sow and in blood and gut scrapings of piglets [1]: produced anti-SRIF antibodies

A-Y-M-G-W-S-C-T-K-W-F (AYMGWSCTKWF) [SEQ ID NO:52]
growth more than non-immunised lambs ([9]; by 84 days of age): 20% | anti-SRIF and anti-cholecystokinin antibodies ([9]; lambs injected three times in oil, at 84 days of age): detectable
